Measured values reported in patent US10676408B2, “Alkynylpyrazoles as nitrification inhibitors” (BASF SE, priority 2014, dated 2020).

System: nitrification
Assay: Inhibition of nitrification in soil (48 well plate, ammonium sulfate, color reaction at 540 nm)
Assay type: cell-based
Details: dose of 10 ppm in 1% DMSO; field soil (e.g. Limburgerhof); incubated at room temperature for up to 72 hrs; inhibition = 100 − % activity compared to control; read-out: IN (best inhibition value obtained for a compound)
Description: The compounds of the invention have been tested as follows in terms of the inhibition of nitrification:
Soil was sampled fresh from a field (e.g. Limburgerhof), dried and sieved through a 500 μm sieve. Approximately 200 mg of soil were placed into each well of a 48 well plate. Compounds, or DMSO alone, were added at a concentration of 10 ppm, dissolved in 1% DMSO. 6 μmol ammonium sulfate was added per well as well as 4.8 mg NaClO3.
Subsequently, the samples were incubated at room temperature for up to 72 hrs. After the incubation period 64 mg KCl were added and mixed. 25 μl of the supernatant were placed into a fresh plate and 260 μl of a color reaction solution (from Merck Nr 1.11799.0100) were added.
Measurements were taken with a Tecan plate Reader at 540 nm wavelength.
Inhibition is calculated as x=% activity compared to control, and converted to 100−x to give the value of inhibition, rather than activity.

C#Cc1cc(C#C)n(C)n1 [Compound 1]
inhibition at 10 ppm: 55%

C#Cc1c(C)nn(C)c1C [Compound 3]
inhibition at 10 ppm: 27%

C#Cc1ccnn1C [Compound 2]
inhibition at 10 ppm: 24%
